Source: US8785396B2, “Method and composition for treating migraines” (Mannkind Corporation, priority 2007, dated 2014)

Key:
[1] = Sumatriptan pharmacokinetics in female Sprague Dawley rats; settings: rat, in vivo, 0.358 mg
ZDF rats = assay: Intraperitoneal glucose tolerance test (IPGTT) in ZDF rats (exendin-4); type: in vivo, rat; settings: subcutaneous injection
Description: After an overnight fast, ZDF rats were given a glucose challenge by intraperitoneal injection (IPGTT).

[2] = system: healthy adult male subjects; assay: Phase 1a clinical trial: insulin, glucose and glucagon response after inhaled GLP-1; type: in vivo, human
Description: GLP-1/FDKP inhalation powder was administered using the MedTone® Inhaler device, previously tested. The experiments were designed to identify the safety and tolerability of various doses of GLP-1/FDKP inhalation powder by pulmonary inhalation.
Dropouts were not replaced. These dosages assumed a body mass of 70 kg.

[3] = system: patients with Type 2 diabetes; assay: Phase 1 clinical trial of GLP-1/FDKP inhalation powder in fasted Type 2 diabetes patients: serum glucose; type: in vivo, human; settings: 1.5 mg GLP-1 inhaled; attained by the 30 min time point
Description: […]. These studies were conducted according to Example 1 and as described herein. […]. No. 11/735,957, which disclosure is incorporated herein by reference. […].
[…]. The serum glucose levels were analyzed for each sample.

[4] = system: patients diagnosed with type 2 diabetes; assay: Meal challenge study in type 2 diabetes patients: GLP-1 levels, insulin, glucose, gastric emptying; type: in vivo, human
Description: Experimental Design: The study was divided into two periods and enrolled 20 patients diagnosed with type 2 diabetes ranging in age from 20 to 64 years of age. […] Period 2 was performed after completion of Period 1. […] The results of this study are depicted in FIGS. 18-20.

Male ZDF rats = assay: Cumulative food consumption in male ZDF rats (oxyntomodulin); type: in vivo, rat; settings: 30% oxyntomodulin/FDKP powder by pulmonary insufflation, fasted ZDF rats
Description: Male ZDF rats (10/group) were assigned to one of four groups.
Rats were allowed to eat after receiving the experimental dose. A predetermined amount of food was given to the rats and the amount of food the rats consumed was measured at various times after the start of the experiment.

Female ZDF rats [5] = assay: Food consumption in female ZDF rats (PYY); type: in vivo, rat; settings: Group 1: 0.6 mg IV
Description: (§1) Pharmacokinetic and pharmacodynamic studies: Female ZDF rats were used in these experiments and divided into 7 groups; five rats were assigned to each group, except for Group 1 which had 3 rats.

Female ZDF rats [6] = assay: Blood glucose in female ZDF rats (PYY); type: in vivo, rat; settings: Group 1: PYY IV
Description: as §1

CNS(=O)(=O)Cc1ccc2[nH]cc(CCN(C)C)c2c1 [Sumatriptan, sumatriptan]
bioavailability ([1]; iv): 100% | bioavailability ([1]; sc): 36.4%

exenatide
time blood glucose was significantly lowered following IPGTT versus air control (ZDF rats): 30 min

glucagon-like peptide 1 [GLP-1]
decrease in plasma glucose in two of the six subjects ([2]; 1.5 mg GLP-1 inhaled): more than 1.5 mol/L | mean fasting plasma glucose 20 min after dosing ([2]; 1.5 mg GLP-1 inhaled, reduced from 85): 70 mg/dL | largest decrease in plasma glucagon ([2]; 1.5 mg dose group): approximately 2.5 pmol/L | time of maximum change in plasma glucagon ([2]; after dosing, inhaled GLP-1): 12 min | peak plasma insulin levels in one subject ([2]; inhaled GLP-1): exceeded 700 pmol/L | peak plasma insulin response in most subjects ([2]; inhaled GLP-1, dose groups 0.05-1.5 mg): 200 to 400 pmol/L | mean glucose drop [3]: approximately 1 mmol/L | insulin response ([4]; GLP-1 dry powder comprising FDKP, fed and fasted groups): more significant | blood glucose after meal challenge ([4]; GLP-1 dry powder formulation): delayed rise in blood glucose and reduced overall exposure (AUC) to glucose

oxyntomodulin
time after dosing with significantly less food consumed than control rats (Male ZDF rats): up to 6 hr

peptide YY(3-36) [PYY]
food consumption (Female ZDF rats [5]): relatively effective in reducing food consumption | time after dosing up to which blood glucose level was lower than in the other rats (Female ZDF rats [6]): about 15 min
